ChEMBL document CHEMBL6078630, “Design, synthesis, and bioactivity investigation of novel cyclic lipopeptide antibiotics targeting top-priority multidrug-resistant gram-negative bacteria” (Eur J Med Chem, 2024)
In brackets after ≈: the same amount, converted by molar mass. Bridge positions count the residues as written; N and C are the ends. Square brackets hold non-standard residues; d marks the D form. Peptide text beside a SMILES is read from it. * marks the point of attachment. X1 = CC[C@H](C)CCCCC(=O)*; Dab = NCC[C@H](N)C(=O)O

How the values were obtained:
Assay type in all cases: functional
Pseudomonas aeruginosa [1] = assay: Antibacterial activity against Pseudomonas aeruginosa ATCC 27853 assessed as inhibition of bacterial growth incubated 24 hrs by cation adjusted Mueller-Hinton broth based method
Pseudomonas aeruginosa [2] = assay: Antibacterial activity against carbapenem-resistant Pseudomonas aeruginosa clinical isolate ets22 assessed as inhibition of bacterial growth incubated for 24 hrs by CLSI protocol based broth microdilution method
Escherichia coli [3] = assay: Antibacterial activity against carbapenem-resistant Escherichia coli clinical isolate 231016w014 assessed as inhibition of bacterial growth incubated for 24 hrs by CLSI protocol based broth microdilution method
Pseudomonas aeruginosa [4] = assay: Antibacterial activity against carbapenem-resistant Pseudomonas aeruginosa clinical isolate ets55 assessed as inhibition of bacterial growth incubated for 24 hrs by CLSI protocol based broth microdilution method
Escherichia coli [5] = assay: Antibacterial activity against carbapenem-resistant Escherichia coli clinical isolate 231109W005 assessed as inhibition of bacterial growth incubated for 24 hrs by CLSI protocol based broth microdilution method
Pseudomonas aeruginosa [6] = assay: Antibacterial activity against carbapenem-resistant Pseudomonas aeruginosa clinical isolate ets85 assessed as inhibition of bacterial growth incubated for 24 hrs by CLSI protocol based broth microdilution method
Klebsiella pneumoniae [7] = assay: Antibacterial activity against carbapenem-resistant Klebsiella pneumoniae clinical isolate ets77 assessed as inhibition of bacterial growth incubated for 24 hrs by CLSI protocol based broth microdilution method
Pseudomonas aeruginosa [8] = assay: Antibacterial activity against carbapenem-resistant Pseudomonas aeruginosa clinical isolate ets84 assessed as inhibition of bacterial growth incubated for 24 hrs by CLSI protocol based broth microdilution method
Pseudomonas aeruginosa [9] = assay: Antibacterial activity against carbapenem-resistant Pseudomonas aeruginosa clinical isolate ets6 assessed as inhibition of bacterial growth incubated for 24 hrs by CLSI protocol based broth microdilution method
Acinetobacter baumannii [10] = assay: Antibacterial activity against carbapenem-resistant Acinetobacter baumannii clinical isolate ets171 assessed as inhibition of bacterial growth incubated for 24 hrs by CLSI protocol based broth microdilution method
Pseudomonas aeruginosa [11] = assay: Antibacterial activity against carbapenem-resistant Pseudomonas aeruginosa clinical isolate ets38 assessed as inhibition of bacterial growth incubated for 24 hrs by CLSI protocol based broth microdilution method
Klebsiella pneumoniae [12] = assay: Antibacterial activity against carbapenem-resistant Klebsiella pneumoniae clinical isolate KPN+19-15 assessed as inhibition of bacterial growth incubated for 16 to 20 hrs by CLSI protocol based broth microdilution method; details: time 16-20 hrs
Acinetobacter baumannii [13] = assay: Antibacterial activity against carbapenem-sensitive Acinetobacter baumannii clinical isolate 19-1 assessed as inhibition of bacterial growth incubated for 16 to 20 hrs by CLSI protocol based broth microdilution method; details: time 16-20 hrs
Escherichia coli [14] = assay: Antibacterial activity against carbapenem-resistant Escherichia coli ATCC BAA-2340 assessed as inhibition of bacterial growth incubated for 16 to 20 hrs by CLSI protocol based broth microdilution method; details: time 16-20 hrs
Pseudomonas aeruginosa [15] = assay: Antibacterial activity against carbapenem-resistant Pseudomonas aeruginosa clinical isolate ets5 assessed as inhibition of bacterial growth incubated for 24 hrs by CLSI protocol based broth microdilution method
Acinetobacter baumannii [16] = assay: Antibacterial activity against carbapenem-resistant Acinetobacter baumannii clinical isolate ets104 assessed as inhibition of bacterial growth incubated for 24 hrs by CLSI protocol based broth microdilution method
Pseudomonas aeruginosa [17] = assay: Antibacterial activity against carbapenem-resistant Pseudomonas aeruginosa clinical isolate ets15 assessed as inhibition of bacterial growth incubated for 24 hrs by CLSI protocol based broth microdilution method
Klebsiella pneumoniae [18] = assay: Antibacterial activity against carbapenem-resistant Klebsiella pneumoniae clinical isolate ets75 assessed as inhibition of bacterial growth incubated for 24 hrs by CLSI protocol based broth microdilution method
Klebsiella pneumoniae [19] = assay: Antibacterial activity against carbapenem-resistant Klebsiella pneumoniae clinical isolate ets45 assessed as inhibition of bacterial growth incubated for 24 hrs by CLSI protocol based broth microdilution method
Acinetobacter baumannii [20] = assay: Antibacterial activity against carbapenem-resistant Acinetobacter baumannii clinical isolate ets30 assessed as inhibition of bacterial growth incubated for 24 hrs by CLSI protocol based broth microdilution method
Klebsiella pneumoniae [21] = assay: Antibacterial activity against carbapenem-resistant Klebsiella pneumoniae clinical isolate ets26 assessed as inhibition of bacterial growth incubated for 24 hrs by CLSI protocol based broth microdilution method
Pseudomonas aeruginosa [22] = assay: Antibacterial activity against Pseudomonas aeruginosa ATCC 27853 assessed as inhibition of bacterial growth incubated for 16 to 20 hrs by CLSI protocol based broth microdilution method; details: time 16-20 hrs
Pseudomonas aeruginosa [23] = assay: Antibacterial activity against carbapenem-resistant Pseudomonas aeruginosa clinical isolate 19-3 assessed as inhibition of bacterial growth incubated for 16 to 20 hrs by CLSI protocol based broth microdilution method; details: time 16-20 hrs
Klebsiella pneumoniae [24] = assay: Antibacterial activity against carbapenem-resistant Klebsiella pneumoniae clinical isolate KPN+19-15 infected in ICR mouse model administered intravenously with compound at 1 and 6 hrs post-infection and measured after 7 days; details: 168 h, route iv, time 7 day
Acinetobacter baumannii [25] = assay: Antibacterial activity against carbapenem-resistant Acinetobacter baumannii clinical isolate ets178 assessed as inhibition of bacterial growth incubated for 24 hrs by CLSI protocol based broth microdilution method
Acinetobacter baumannii [26] = assay: Antibacterial activity against carbapenem-resistant Acinetobacter baumannii clinical isolate ets123 assessed as inhibition of bacterial growth incubated for 24 hrs by CLSI protocol based broth microdilution method
Klebsiella pneumoniae [27] = assay: Antibacterial activity against carbapenem-resistant Klebsiella pneumoniae clinical isolate ets40 assessed as inhibition of bacterial growth incubated for 24 hrs by CLSI protocol based broth microdilution method
Klebsiella pneumoniae [28] = assay: Antibacterial activity against carbapenem-resistant Klebsiella pneumoniae clinical isolate ets80 assessed as inhibition of bacterial growth incubated for 24 hrs by CLSI protocol based broth microdilution method
Pseudomonas aeruginosa [29] = assay: Antibacterial activity against carbapenem-resistant Pseudomonas aeruginosa clinical isolate ets49 assessed as inhibition of bacterial growth incubated for 24 hrs by CLSI protocol based broth microdilution method
Escherichia coli [30] = assay: Antibacterial activity against Escherichia coli ATCC BAA-2523 assessed as inhibition of bacterial growth incubated for 16 to 20 hrs by CLSI protocol based broth microdilution method; details: time 16-20 hrs
Acinetobacter baumannii [31] = assay: Antibacterial activity against Acinetobacter baumannii NCTC 13304 (OXA-27) assessed as inhibition of bacterial growth incubated for 16 to 20 hrs by CLSI protocol based broth microdilution method; details: time 16-20 hrs
Pseudomonas aeruginosa [32] = assay: Antibacterial activity against Pseudomonas aeruginosa ATCC 27853 infected in ICR mouse model infected in ICR mouse model assessed as survival rate at 2 mg/kg, iv administered at 1 and 6 hrs post-infection and measured after 7 days relative to control; details: ATCC 27853, 168 h, time 7 day
Pseudomonas aeruginosa [33] = assay: Antibacterial activity against carbapenem-resistant Pseudomonas aeruginosa clinical isolate ets104 assessed as inhibition of bacterial growth incubated for 24 hrs by CLSI protocol based broth microdilution method
Escherichia coli [34] = assay: Antibacterial activity against carbapenem-resistant Escherichia coli clinical isolate 231112E006B assessed as inhibition of bacterial growth incubated for 24 hrs by CLSI protocol based broth microdilution method
Pseudomonas aeruginosa [35] = assay: Antibacterial activity against carbapenem-resistant Pseudomonas aeruginosa clinical isolate ets83 assessed as inhibition of bacterial growth incubated for 24 hrs by CLSI protocol based broth microdilution method
Klebsiella pneumoniae [36] = assay: Antibacterial activity against carbapenem-resistant Klebsiella pneumoniae clinical isolate ets74 assessed as inhibition of bacterial growth incubated for 24 hrs by CLSI protocol based broth microdilution method
Pseudomonas aeruginosa [37] = assay: Antibacterial activity against carbapenem-resistant Pseudomonas aeruginosa clinical isolate ets33 assessed as inhibition of bacterial growth incubated for 24 hrs by CLSI protocol based broth microdilution method
Klebsiella pneumoniae [38] = assay: Antibacterial activity against carbapenem-resistant Klebsiella pneumoniae clinical isolate KPN+19-15 infected in ICR mouse model assessed as survival rate at 4 mg/kg, iv administered at 1 and 6 hrs post-infection and measured after 7 days relative to control; details: 168 h, time 7 day
Klebsiella pneumoniae [39] = assay: Antibacterial activity against carbapenem-resistant Klebsiella pneumoniae clinical isolate ets78 assessed as inhibition of bacterial growth incubated for 24 hrs by CLSI protocol based broth microdilution method
Klebsiella pneumoniae [40] = assay: Antibacterial activity against carbapenem-resistant Klebsiella pneumoniae ATCC BAA-1705 assessed as inhibition of bacterial growth incubated for 16 to 20 hrs by CLSI protocol based broth microdilution method; details: time 16-20 hrs
Pseudomonas aeruginosa [41] = assay: Antibacterial activity against Pseudomonas aeruginosa ATCC 27853 infected in ICR mouse model infected in ICR mouse model assessed as survival rate at 20 mg/kg, iv administered at 1 and 6 hrs post-infection and measured after 7 days relative to control; details: ATCC 27853, 168 h, time 7 day
Pseudomonas aeruginosa [42] = assay: Antibacterial activity against Pseudomonas aeruginosa ATCC 27853 infected in ICR mouse model administered intravenously with compound at 1 and 6 hrs post-infection and measured after 7 days; details: ATCC 27853, 168 h, route iv, time 7 day

## CO[C@H]1/C=C/O[C@@]2(C)Oc3c(C)c(O)c4c(O)c(c(/C=N/N5CCN(C)CC5)c(O)c4c3C2=O)NC(=O)/C(C)=C\C=C\[C@H](C)[C@H](O)[C@@H](C)[C@@H](O)[C@@H](C)[C@H](OC(C)=O)[C@@H]1C [RIFAMPIN]
Pseudomonas aeruginosa [1]
  MIC: 32 µg/mL (≈ 38.9 µM)

## CC(C)CCCCC(=O)N[C@@H](CCN)C(=O)N[C@H](C(=O)N[C@@H](CCN)C(=O)N[C@H]1CCNC(=O)[C@H]([C@@H](C)O)NC(=O)[C@H](CCN)NC(=O)[C@H](CCN)NC(=O)[C@H](CC(C)C)NC(=O)[C@@H](Cc2ccccc2)NC(=O)[C@H](CCN)NC1=O)[C@@H](C)O.CC[C@H](C)CCCCC(=O)N[C@@H](CCN)C(=O)N[C@H](C(=O)N[C@@H](CCN)C(=O)N[C@H]1CCNC(=O)[C@H]([C@@H](C)O)NC(=O)[C@H](CCN)NC(=O)[C@H](CCN)NC(=O)[C@H](CC(C)C)NC(=O)[C@@H](Cc2ccccc2)NC(=O)[C@H](CCN)NC1=O)[C@@H](C)O (X1-[Dab]T[Dab][Dab][Dab][dF]L[Dab][Dab]T; lactam 4-C)
Pseudomonas aeruginosa [2]
  MIC: 4 µg/mL
Escherichia coli [3]
  MIC: < 0.06 µg/mL
Pseudomonas aeruginosa [4]
  MIC: 4 µg/mL
Escherichia coli [5]
  MIC: < 0.06 µg/mL
Pseudomonas aeruginosa [6]
  MIC: 4 µg/mL
Klebsiella pneumoniae [7]
  MIC: 1 µg/mL
Pseudomonas aeruginosa [8]
  MIC: 0.5 µg/mL
Pseudomonas aeruginosa [9]
  MIC: 2 µg/mL
Acinetobacter baumannii [10]
  MIC: 2 µg/mL
Pseudomonas aeruginosa [11]
  MIC: 4 µg/mL
Klebsiella pneumoniae [12]
  MIC: 0.125 µg/mL
Acinetobacter baumannii [13]
  MIC: 0.25 µg/mL
Escherichia coli [14]
  MIC: ≤ 0.03 µg/mL
Pseudomonas aeruginosa [15]
  MIC: 2 µg/mL
Acinetobacter baumannii [16]
  MIC: 0.125 µg/mL
Pseudomonas aeruginosa [17]
  MIC: 1 µg/mL
Klebsiella pneumoniae [18]
  MIC: 1 µg/mL
Klebsiella pneumoniae [19]
  MIC: 2 µg/mL
Acinetobacter baumannii [20]
  MIC: 1 µg/mL
Klebsiella pneumoniae [21]
  MIC: 2 µg/mL
Pseudomonas aeruginosa [22]
  MIC: 0.25 µg/mL
Pseudomonas aeruginosa [23]
  MIC: 0.25 µg/mL
Klebsiella pneumoniae [24]
  ED50: 2.7 mg/kg
Acinetobacter baumannii [25]
  MIC: 2 µg/mL
Acinetobacter baumannii [26]
  MIC: 1 µg/mL
Klebsiella pneumoniae [27]
  MIC: 1 µg/mL
Klebsiella pneumoniae [28]
  MIC: 1 µg/mL
Pseudomonas aeruginosa [29]
  MIC: 4 µg/mL
Escherichia coli [30]
  MIC: ≤ 0.03 µg/mL
Acinetobacter baumannii [31]
  MIC: 0.06 µg/mL
Pseudomonas aeruginosa [32]
  survival at 2 mg/kg: 37.5%
Pseudomonas aeruginosa [33]
  MIC: 4 µg/mL
Escherichia coli [34]
  MIC: < 0.06 µg/mL
Pseudomonas aeruginosa [35]
  MIC: 1 µg/mL
Klebsiella pneumoniae [36]
  MIC: 1 µg/mL
Pseudomonas aeruginosa [37]
  MIC: 4 µg/mL
Klebsiella pneumoniae [38]
  survival at 4 mg/kg: 62.5%
Klebsiella pneumoniae [39]
  MIC: 0.5 µg/mL
Klebsiella pneumoniae [40]
  MIC: 0.125 µg/mL

## C[C@@H](O)[C@H]1C(=O)N2C(C(=O)O)=C(S[C@@H]3CN[C@H](C(=O)N(C)C)C3)[C@H](C)[C@H]12 [MEROPENEM]
Pseudomonas aeruginosa [41]
  survival at 20 mg/kg: 100%
Pseudomonas aeruginosa [42]
  ED50: 7.07 mg/kg
